This series in a line: HPLC stability test of vitamin C in non-aqueous cosmetics. The series is classed as physicochemical. The note with it: maintained for 24 months. On the procedure: To confirm the stability of vitamin C (ascorbic acid) contained in non-aqueous cosmetics, the content of the reduced form of ascorbic acid was measured by HPLC for 24 months. The non-aqueous cosmetics in an amount of 0.1 g was collected and distilled water was added to a final volume of 1 mL, and vehemently mixed. Then, the water-soluble ascorbic acid was eluted and the aqueous solution containing ascorbic acid was diluted and used for analysis. The column used was the C18 (4.6×150 mm) and 0.025 M phosphoric acid (pH 2.5) was used for the mobile phase. After adding 10 mM DTT to a 100-fold diluted sample for analysis, the amounts of the reduced form in the sample in which ascorbic acid was all converted to a reduced form and the sample in which 10 mM DTT was not added were compared and thereby the amounts of the ascorbic acid in the reduced form contained in the cosmetics were confirmed. The samples were prepared for 0, 3, 6, 9, 12, 18, and 24 months and analyzed by HPLC. […] The amounts of ascorbic acid in the reduced form was calculated as follows. [table]

Turning to `O=C1O[C@H]([C@@H](O)CO)C(O)=C1O` [ascorbic acid], the “content of ascorbic acid in the reduced form (Initial AA/Total AA × 100)” value is not below 96%.

These data come from patent publication US11464953B2, “Water-soluble microneedle spicules and non-aqueous cosmetic composition containing the same” (PAEAN AESTHETICS INC., priority 2015, dated 2022).
